Measured values published in PubChem BioAssay AID330 (DTP/NCI, 2004).
Where “and” joins values, the source holds several entries; their conditions need not be identical. Equal values may be shown once. Toxic doses and inconclusive results are not listed. How the source made its calls: active means survival T/C of 150% or more; inactive means T/C below 125% in these data.

Tested on: P388 leukemia ip, CD2F1 mice, survival T/C
Experiment: NCI In Vivo Anticancer Drug Screen. Data for tumor model P388 Leukemia (intraperitoneal) in CD2F1 (CDF1) mice
Conditions: endpoint: median survival time, higher = longer survival
Method in brief: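 Mice carrying the transplanted tumor received test compound or vehicle. Survival was recorded in each group, and the value is the treated-group measurement divided by that of the vehicle-treated control group.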

[1] = dose: 12.5 mg/kg/injection, schedule: Q01DX009 (ip), vehicle: saline
[2] = dose: 50.0 mg/kg/injection, schedule: Q01DX009 (ip), vehicle: saline
[3] = dose: 100.0 mg/kg/injection, schedule: Q01DX009 (ip), vehicle: saline
[4] = dose: 200.0 mg/kg/injection, schedule: Q01DX009 (ip), vehicle: saline
[5] = dose: 60.0 mg/kg/injection, schedule: Q01DX005 (ip), vehicle: saline with Tween-80
[6] = dose: 120.0 mg/kg/injection, schedule: Q01DX005 (ip), vehicle: saline with Tween-80
[7] = dose: 240.0 mg/kg/injection, schedule: Q01DX005 (ip), vehicle: saline with Tween-80
[8] = dose: 50.0 mg/kg/injection, schedule: Q01DX005 (ip), vehicle: Klucel (hydroxypropylcellulose) (HPC)
[9] = dose: 100.0 mg/kg/injection, schedule: Q01DX005 (ip), vehicle: Klucel (hydroxypropylcellulose) (HPC)
[10] = dose: 200.0 mg/kg/injection, schedule: Q01DX005 (ip), vehicle: Klucel (hydroxypropylcellulose) (HPC)
[11] = dose: 50.0 mg/kg/injection, schedule: Q01DX005 (ip), vehicle: saline with Tween-80
[12] = dose: 100.0 mg/kg/injection, schedule: Q01DX005 (ip), vehicle: saline with Tween-80
[13] = dose: 200.0 mg/kg/injection, schedule: Q01DX005 (ip), vehicle: saline with Tween-80
[14] = dose: 50.0 mg/kg/injection, schedule: Q01DX009 (ip), vehicle: Klucel (hydroxypropylcellulose) (HPC)
[15] = dose: 100.0 mg/kg/injection, schedule: Q01DX009 (ip), vehicle: Klucel (hydroxypropylcellulose) (HPC)
[16] = dose: 200.0 mg/kg/injection, schedule: Q01DX009 (ip), vehicle: Klucel (hydroxypropylcellulose) (HPC)
[17] = dose: 60.0 mg/kg/injection, schedule: Q01DX005 (ip), vehicle: Klucel (hydroxypropylcellulose) (HPC)
[18] = dose: 120.0 mg/kg/injection, schedule: Q01DX005 (ip), vehicle: Klucel (hydroxypropylcellulose) (HPC)
[19] = dose: 240.0 mg/kg/injection, schedule: Q01DX005 (ip), vehicle: Klucel (hydroxypropylcellulose) (HPC)
[20] = dose: 50.0 mg/kg/injection, schedule: Q01DX009 (ip), vehicle: saline with Tween-80
[21] = dose: 100.0 mg/kg/injection, schedule: Q01DX009 (ip), vehicle: saline with Tween-80
[22] = dose: 200.0 mg/kg/injection, schedule: Q01DX009 (ip), vehicle: saline with Tween-80
[23] = dose: 100.0 mg/kg/injection, schedule: Q01DX001 (ip), vehicle: saline with Tween-80
[24] = dose: 200.0 mg/kg/injection, schedule: Q01DX001 (ip), vehicle: saline with Tween-80
[25] = dose: 400.0 mg/kg/injection, schedule: Q01DX001 (ip), vehicle: saline with Tween-80

Measured: T/C

OCCCN1CCN(CCCO)CC1
inactive: [1] 103 % of control and 96 % of control | dose: 25.0 mg/kg/injection, schedule: Q01DX009 (ip), vehicle: saline 97 % of control and 98 % of control | [2] 92 % of control and 97 % of control | [3] 101 % of control and 95 % of control | [4] 100 % of control and 106 % of control | dose: 400.0 mg/kg/injection, schedule: Q01DX009 (ip), vehicle: saline 103 % of control and 91 % of control

COc1nc2c(ccn2C2OC(COC(C)=O)C(OC(C)=O)C(OC(C)=O)C2OC(C)=O)c(=O)n1C (centres undefined)
inactive: [5] 100 % of control | [6] 104 % of control | [7] 95 % of control

Cc1ccccc1CN1C2=NCCN2C(=O)C2=C1CCN(S(=O)(=O)c1ccc(Cl)c(S(N)(=O)=O)c1)C2
inactive: [2] 96 % of control | [3] 97 % of control | [4] 90 % of control

CC(C)=CCC/C(C)=C/CC/C(C)=C/CC/C=C(\C)CC/C=C(\C)CCC[N+](C)(C)[O-]
inactive: dose: 60.0 mg/kg/injection, schedule: Q01DX005 (ip), vehicle: saline 101 % of control | dose: 120.0 mg/kg/injection, schedule: Q01DX005 (ip), vehicle: saline 101 % of control | dose: 240.0 mg/kg/injection, schedule: Q01DX005 (ip), vehicle: saline 99 % of control

CC1(C)OC2OC(COC(=O)c3ccccc3)C(=O)C2O1 (centres undefined)
inactive: dose: 3.13 mg/kg/injection, schedule: Q01DX009 (ip), vehicle: saline with Tween-80 95 % of control | dose: 6.25 mg/kg/injection, schedule: Q01DX009 (ip), vehicle: saline with Tween-80 93 % of control | dose: 12.5 mg/kg/injection, schedule: Q01DX009 (ip), vehicle: saline with Tween-80 89 % of control

CN(C)CC/C(Br)=C1/c2ccccc2Sc2ccc(Cl)cc21
inactive: [8] 111 % of control | [9] 98 % of control | [10] 93 % of control

Cc1ccc(S(=O)(=O)NN=C2C(C)C(c3ccccc3)NC(c3ccccc3)C2C)cc1 (centres undefined)
inactive: dose: 200.0 mg/kg/injection, schedule: Q01DX001 (ip), vehicle: Klucel (hydroxypropylcellulose) (HPC) 88 % of control

O=c1[nH]ncc2c1Sc1cn[nH]c(=O)c1S2
inactive: [11] 97 % of control | [12] 104 % of control | [13] 100 % of control

CC(=O)CC(=O)c1c(-c2ccccc2)[nH]c2ccccc12
inactive: dose: 25.0 mg/kg/injection, schedule: Q04DX003 (ip), vehicle: saline + alcohol 100 % of control | dose: 50.0 mg/kg/injection, schedule: Q04DX003 (ip), vehicle: saline + alcohol 102 % of control | dose: 100.0 mg/kg/injection, schedule: Q04DX003 (ip), vehicle: saline + alcohol 107 % of control and 96 % of control

CCCCCCCCCCCN1CCS(=O)(=O)CC1
inactive: [14] 100 % of control | [15] 98 % of control | [16] 94 % of control

CN(C)C(=O)Cn1cc([N+](=O)[O-])sc1=NC(=O)c1ccncc1
inactive: dose: 100.0 mg/kg/injection, schedule: Q01DX001 (ip), vehicle: saline 93 % of control | dose: 200.0 mg/kg/injection, schedule: Q01DX001 (ip), vehicle: saline 109 % of control | dose: 400.0 mg/kg/injection, schedule: Q01DX001 (ip), vehicle: saline 105 % of control

CN(CC(=O)NN)c1ccccc1
inactive: [11] 93 % of control | [12] 95 % of control | [13] 95 % of control

O=c1oc2ccccc2c(O)c1C(c1ccc2c(c1)OCO2)N1CCOCC1 (centres undefined)
inactive: dose: 50.0 mg/kg/injection, schedule: Q01DX005 (ip), vehicle: saline 113 % of control | dose: 100.0 mg/kg/injection, schedule: Q01DX005 (ip), vehicle: saline 110 % of control | dose: 200.0 mg/kg/injection, schedule: Q01DX005 (ip), vehicle: saline 103 % of control

CC(=O)NSCC(NC(=O)OC(C)(C)C)C(=O)O (centres undefined)
inactive: [11] 97 % of control | [12] 102 % of control | [13] 95 % of control

CC1(O)COC1(c1ccccc1)c1ccccc1 (centres undefined)
inactive: [5] 93 % of control | [6] 96 % of control | [7] 93 % of control

CCN(CC)CCNC(=O)c1nn(-c2ccccc2)c2c1CCc1ccccc1-2
inactive: dose: 25.0 mg/kg/injection, schedule: Q04DX003 (ip), vehicle: saline 100 % of control | dose: 50.0 mg/kg/injection, schedule: Q04DX003 (ip), vehicle: saline 101 % of control | dose: 100.0 mg/kg/injection, schedule: Q04DX003 (ip), vehicle: saline 102 % of control and 107 % of control

Brc1ccccc1CN=Cc1ccc2c(c1)OCO2
inactive: [8] 101 % of control | [9] 105 % of control | [10] 103 % of control

CSc1nc2c(SC)ncnc2s1
inactive: dose: 100.0 mg/kg/injection, schedule: Q01DX001 (ip), vehicle: distilled water + alcohol 103 % of control | dose: 200.0 mg/kg/injection, schedule: Q01DX001 (ip), vehicle: distilled water + alcohol 94 % of control | dose: 400.0 mg/kg/injection, schedule: Q01DX001 (ip), vehicle: distilled water + alcohol 98 % of control

Nc1cncc2nnnn12
inactive: [17] 104 % of control | [18] 104 % of control | [19] 113 % of control

CC1(C)CN(C(=S)N2CC(C)(C)SC2=O)C(=O)S1
inactive: [5] 108 % of control | [6] 98 % of control | [7] 104 % of control

O=C(O)c1c[nH]c2c(ccc3[nH]cc(C(=O)O)c(=O)c32)c1=O
inactive: [17] 105 % of control | [18] 102 % of control | [19] 92 % of control

COc1cc(/C=C2\CN(C)C(=O)C2=O)ccc1O
inactive: [20] 100 % of control | [21] 108 % of control | [22] 109 % of control | dose: 400.0 mg/kg/injection, schedule: Q01DX009 (ip), vehicle: saline with Tween-80 108 % of control

CCN(CC)CCNc1ccc([N+](=O)[O-])c2sc3ccccc3c(=O)c12
inactive: dose: 6.25 mg/kg/injection, schedule: Q01DX009 (ip), vehicle: saline 104 % of control | [1] 112 % of control | dose: 75.0 mg/kg/injection, schedule: Q01DX009 (ip), vehicle: saline 115 % of control
active: dose: 33.0 mg/kg/injection, schedule: Q01DX009 (ip), vehicle: saline 180 % of control | [2] 220 % of control | [21] 158 % of control

Nc1cc2ccccc2c(Br)n1
inactive: [23] 100 % of control | [24] 95 % of control | [25] 100 % of control

CCOC(=O)NC(=S)Nc1ncn[nH]1
inactive: dose: 50.0 mg/kg/injection, schedule: Q04DX003 (ip), vehicle: saline with Tween-80 100 % of control | dose: 100.0 mg/kg/injection, schedule: Q04DX003 (ip), vehicle: saline with Tween-80 95 % of control | dose: 200.0 mg/kg/injection, schedule: Q04DX003 (ip), vehicle: saline with Tween-80 100 % of control | dose: 400.0 mg/kg/injection, schedule: Q04DX003 (ip), vehicle: saline with Tween-80 99 % of control

COc1nnnc2c1sc1ccccc12
inactive: [23] 101 % of control | [24] 104 % of control | [25] 102 % of control

CC1(O)CC23CC1CCC2(C)C12CCCC(C)(C(=O)O1)C2CC3O (centres undefined)
inactive: dose: 12.5 mg/kg/injection, schedule: Q01DX009 (ip), vehicle: Klucel (hydroxypropylcellulose) (HPC) 99 % of control | dose: 25.0 mg/kg/injection, schedule: Q01DX009 (ip), vehicle: Klucel (hydroxypropylcellulose) (HPC) 100 % of control | [14] 108 % of control | [15] 103 % of control | [16] 100 % of control

N#CC(=C1C=CC(=NO)C=C1)c1ccccc1
inactive: [22] 115 % of control

CC(C)(C)c1cc(C(=S)SCc2ccccc2)cc(C(C)(C)C)c1O
inactive: [20] 93 % of control | [21] 105 % of control | [22] 105 % of control

CC(=O)n1c(N)nc2ccccc21
inactive: [2] 104 % of control | [3] 104 % of control | [4] 90 % of control

CCOC(=O)C(NC(=O)C(CO)n1c(-c2ccccc2)c(-c2ccccc2)oc1=O)C(=O)OCC (centres undefined)
inactive: [5] 105 % of control | [6] 104 % of control | [7] 90 % of control
